The values that follow come from PubChem BioAssay AID180 (DTP/NCI, 2004).

One may read the T/C as the result in the treated group divided by that in the control group, in per cent.

“And” between values parts separate entries of the source, which are not always exact repeats. Identical values can stand only once.

The assay has as its system BDF1 mice, Adenocarcinoma 755 s.c., tumor weight T/C. Put plainly: NCI In Vivo Anticancer Drug Screen. Data for tumor model Adenocarcinoma 755 (subcutaneous) in B6D2F1 (BDF1) mice. As to conditions: endpoint: mean tumor weight, higher = larger tumour. The gist of the method:
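In vivo antitumor screen on a transplantable tumor line. Result equals the measure in compound-treated animals divided by the same measure in vehicle controls.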

The mark [1] stands for this setting: dose: 3.75 mg/kg/injection, schedule: Q01DX011 (sc), vehicle: steriod suspending solution.
Where [2] appears, read: dose: 7.5 mg/kg/injection, schedule: Q01DX011 (sc), vehicle: steriod suspending solution.
Where [3] appears, read: dose: 30.0 mg/kg/injection, schedule: Q01DX011 (sc), vehicle: steriod suspending solution.
The mark [4] stands for this setting: dose: 400.0 mg/kg/injection, schedule: Q01DX011 (ip), vehicle: carboxymethylcellulose (CMC).

Turning to `CC(=O)OCC(=O)[C@@]1(O)CC[C@H]2[C@@H]3CCC4=CC(=O)CC[C@]4(C)[C@H]3[C@@H](O)C[C@@]21C`, the T/C by setting is: (dose: 1.13 mg/kg/injection, schedule: Q01DX011 (sc), vehicle: steriod suspending solution) 225 % of control; (dose: 2.25 mg/kg/injection, schedule: Q01DX011 (sc), vehicle: steriod suspending solution) 109 % of control; (dose: 2.5 mg/kg/injection, schedule: Q01DX011 (ip), vehicle: steriod suspending solution) 60 % of control; under setting [1], 117 % of control; (dose: 4.5 mg/kg/injection, schedule: Q01DX011 (sc), vehicle: steriod suspending solution) 153 % of control; (dose: 5.0 mg/kg/injection, schedule: Q01DX011 (ip), vehicle: steriod suspending solution) 73 % of control. The T/C is 56 % of control (dose: 5.0 mg/kg/injection, schedule: Q01DX011 (sc), vehicle: steriod suspending solution); 85 % of control under setting [2]; 54 % of control (dose: 9.0 mg/kg/injection, schedule: Q01DX011 (sc), vehicle: steriod suspending solution); 88 % of control (dose: 10.0 mg/kg/injection, schedule: Q01DX006 (iv), vehicle: steriod suspending solution); 50 % of control (dose: 10.0 mg/kg/injection, schedule: Q01DX011 (ip), vehicle: steriod suspending solution); 33 % of control (dose: 10.0 mg/kg/injection, schedule: Q01DX011 (sc), vehicle: steriod suspending solution). For the same compound, the T/C reads like this: (dose: 20.0 mg/kg/injection, schedule: Q01DX006 (iv), vehicle: steriod suspending solution) 32 % of control; (dose: 20.0 mg/kg/injection, schedule: Q01DX011 (ip), vehicle: steriod suspending solution) 17 % of control; (dose: 20.0 mg/kg/injection, schedule: Q01DX011 (sc), vehicle: steriod suspending solution) 63 % of control; under setting [3], 19 % of control and 28 % of control; (dose: 31.25 mg/kg/injection, schedule: Q01DX011 (sc), vehicle: steriod suspending solution) 19 % of control; (dose: 40.0 mg/kg/injection, schedule: Q01DX006 (iv), vehicle: steriod suspending solution) 66 % of control. Also, the T/C is 15 % of control (dose: 40.0 mg/kg/injection, schedule: Q01DX011 (sc), vehicle: steriod suspending solution); 27 % of control (dose: 45.0 mg/kg/injection, schedule: Q01DX011 (sc), vehicle: steriod suspending solution); 16 % of control (dose: 50.0 mg/kg/injection, schedule: Q01DX011 (sc), vehicle: steriod suspending solution); 21 % of control (dose: 62.5 mg/kg/injection, schedule: Q01DX011 (sc), vehicle: steriod suspending solution); 34 % of control and 41 % of control (dose: 70.0 mg/kg/injection, schedule: Q01DX001 (sc), vehicle: steriod suspending solution); 17 % of control (dose: 70.0 mg/kg/injection, schedule: Q07DX002 (sc), vehicle: steriod suspending solution). In addition, the T/C was 19 % of control (dose: 80.0 mg/kg/injection, schedule: Q01DX006 (iv), vehicle: steriod suspending solution); 2 % of control (dose: 125.0 mg/kg/injection, schedule: Q01DX011 (sc), vehicle: steriod suspending solution); 23 % of control and 43 % of control (dose: 140.0 mg/kg/injection, schedule: Q01DX001 (sc), vehicle: steriod suspending solution); 28 % of control (dose: 160.0 mg/kg/injection, schedule: Q01DX006 (iv), vehicle: steriod suspending solution); 32 % of control and 46 % of control (dose: 280.0 mg/kg/injection, schedule: Q01DX001 (sc), vehicle: steriod suspending solution); 14 % of control (dose: 280.0 mg/kg/injection, schedule: Q07DX002 (sc), vehicle: steriod suspending solution).
As for `CC(=O)OCC(=O)C1(O)C(C)CC2C3C=C(C)C4=Cc5c(cnn5-c5ccccc5)CC4(C)C3C(O)CC21C` (centres undefined), the T/C is 74 % of control (dose: 0.01 mg/kg/injection, schedule: Q01DX011 (sc), vehicle: steriod suspending solution); 59 % of control (dose: 0.02 mg/kg/injection, schedule: Q01DX011 (sc), vehicle: steriod suspending solution); 46 % of control and 48 % of control (dose: 0.05 mg/kg/injection, schedule: Q01DX011 (sc), vehicle: steriod suspending solution); 19 % of control and 23 % of control (dose: 0.1 mg/kg/injection, schedule: Q01DX011 (sc), vehicle: steriod suspending solution); 9 % of control and 13 % of control (dose: 0.2 mg/kg/injection, schedule: Q01DX011 (sc), vehicle: steriod suspending solution); 14 % of control (dose: 1.0 mg/kg/injection, schedule: Q01DX011 (sc), vehicle: steriod suspending solution). For the same compound, the T/C (dose: 5.0 micrograms/kg/injection, schedule: Q01DX011 (sc), vehicle: steriod suspending solution) was 54 % of control; the T/C (dose: 10.0 micrograms/kg/injection, schedule: Q01DX011 (sc), vehicle: steriod suspending solution) is 106 % of control; the T/C (dose: 25.0 micrograms/kg/injection, schedule: Q01DX011 (sc), vehicle: steriod suspending solution) is 46 % of control.
As to `Nc1[nH]c(=S)ncc1NC=O`, the T/C runs as follows: (dose: 30.0 mg/kg/injection, schedule: Q01DX011 (ip), vehicle: carboxymethylcellulose (CMC)) 90 % of control; (dose: 120.0 mg/kg/injection, schedule: Q01DX011 (ip), vehicle: carboxymethylcellulose (CMC)) 91 % of control; (dose: 240.0 mg/kg/injection, schedule: Q01DX011 (ip), vehicle: carboxymethylcellulose (CMC)) 79 % of control.
As for `O=C(CCl)Nc1ncnc2nc[nH]c12`, under “dose: 20.0 mg/kg/injection, schedule: Q01DX011 (ip), vehicle: methylcellulose (MC)”, the T/C is 84 % of control.
As to `Cn1c(=O)c2c(nc(C(=N)SCC(=O)O)n2C)n(C)c1=O`, where the note is “dose: 25.0 mg/kg/injection, schedule: Q01DX011 (ip), vehicle: methylcellulose (MC)”, the T/C is 61 % of control.
As for `Nc1nc(NCc2ccccc2)cc(=O)[nH]1`, the T/C is 66 % of control (dose: 55.0 mg/kg/injection, schedule: Q01DX011 (ip), vehicle: methylcellulose (MC)) and 49 % of control (dose: 165.0 mg/kg/injection, schedule: Q01DX011 (ip), vehicle: methylcellulose (MC)).
In the case of `CN1CC[C@]23c4c5ccc(O)c4O[C@H]2C(=O)CC[C@@]3(O)[C@H]1C5`, the T/C (dose: 4.5 mg/kg/injection, schedule: Q01DX011 (ip), vehicle: methylcellulose (MC)) was 61 % of control and 73 % of control and 74 % of control.
Consider `Nc1nc(SCCc2ccccc2)c2[nH]cnc2n1`, for which the T/C runs as follows: (dose: 31.25 mg/kg/injection, schedule: Q01DX011 (ip), vehicle: carboxymethylcellulose (CMC)) 106 % of control; (dose: 50.0 mg/kg/injection, schedule: Q01DX011 (ip), vehicle: carboxymethylcellulose (CMC)) 97 % of control; (dose: 62.5 mg/kg/injection, schedule: Q01DX011 (ip), vehicle: carboxymethylcellulose (CMC)) 52 % of control; (dose: 100.0 mg/kg/injection, schedule: Q01DX011 (ip), vehicle: carboxymethylcellulose (CMC)) 81 % of control; (dose: 125.0 mg/kg/injection, schedule: Q01DX011 (ip), vehicle: carboxymethylcellulose (CMC)) 19 % of control; (dose: 200.0 mg/kg/injection, schedule: Q01DX011 (ip), vehicle: carboxymethylcellulose (CMC)) 74 % of control. For the same compound, the T/C runs as follows: (dose: 250.0 mg/kg/injection, schedule: Q01DX011 (ip), vehicle: carboxymethylcellulose (CMC)) 6 % of control; under setting [4], 75 % of control; (dose: 800.0 mg/kg/injection, schedule: Q01DX011 (ip), vehicle: carboxymethylcellulose (CMC)) 22 % of control.
With `COc1ccccc1NC(=O)CSC(N)=O`, the T/C is 106 % of control (dose: 50.0 mg/kg/injection, schedule: Q01DX011 (ip), vehicle: methylcellulose (MC)) and 5 % of control under setting [4].
`Nc1nc([S-])c2nc[nH]c2n1.Nc1nc([S-])c2nc[nH]c2n1.Nc1nc([S-])c2nc[nH]c2n1.[Pt]`: the T/C (dose: 1.0 mg/kg/injection, schedule: Q01DX011 (ip), vehicle: carboxymethylcellulose (CMC)) was 44 % of control; the T/C (dose: 1.3 mg/kg/injection, schedule: Q01DX011 (ip), vehicle: carboxymethylcellulose (CMC)) is 65 % of control; the T/C (dose: 2.0 mg/kg/injection, schedule: Q01DX011 (ip), vehicle: carboxymethylcellulose (CMC)) is 19 % of control; the T/C (dose: 2.5 mg/kg/injection, schedule: Q01DX011 (ip), vehicle: carboxymethylcellulose (CMC)) was 12 % of control; the T/C (dose: 4.0 mg/kg/injection, schedule: Q01DX011 (ip), vehicle: carboxymethylcellulose (CMC)) is 2 % of control.
Regarding `CC(=O)OCC(=O)[C@@]1(O)CC[C@H]2[C@@H]3CCC4=CC(=O)[C@H](C)C[C@]4(C)[C@@]3(F)[C@@H](O)C[C@@]21C`, the T/C under setting [1] was 65 % of control; the T/C under setting [2] is 29 % of control; the T/C (dose: 15.0 mg/kg/injection, schedule: Q01DX011 (sc), vehicle: steriod suspending solution) is 20 % of control; the T/C under setting [3] is 9 % of control.
Turning to `CNC(=O)NO`, the T/C (dose: 50.0 mg/kg/injection, schedule: Q01DX011 (ip), vehicle: water) is 65 % of control and the T/C (dose: 100.0 mg/kg/injection, schedule: Q01DX011 (ip), vehicle: water) is 43 % of control.
